{
  "source": "paper PMC6592956",
  "about": "“Characterization of Porcine Hepatic and Intestinal Drug Metabolizing CYP450: Comparison with Human Orthologues from A Quantitative, Activity and Selectivity Perspective” (Scientific Reports, 2019)",
  "key": {"CYP2A [1]": {"test_system": "CYP2A", "set-up": "method as in Cyrus et al., 2011 and references herein", "conditions": "human; ref Cyrus et al., 2011 and references herein; cited from earlier work"}, "porcine CYP2D25": {"test_system": "porcine CYP2D25", "set-up": "method as in Skaanild, 2006; Hosseinpour and Wikvall, 2000", "conditions": "ref Skaanild, 2006; Hosseinpour and Wikvall, 2000; cited from earlier work"}, "CYP2D [2]": {"target": "T1, CYP2D (Sus scrofa, UniProt O46658)", "T1 construct": "from tissue; host or cells: pig liver microsomes", "T1 sequence (O46658 1-500)": "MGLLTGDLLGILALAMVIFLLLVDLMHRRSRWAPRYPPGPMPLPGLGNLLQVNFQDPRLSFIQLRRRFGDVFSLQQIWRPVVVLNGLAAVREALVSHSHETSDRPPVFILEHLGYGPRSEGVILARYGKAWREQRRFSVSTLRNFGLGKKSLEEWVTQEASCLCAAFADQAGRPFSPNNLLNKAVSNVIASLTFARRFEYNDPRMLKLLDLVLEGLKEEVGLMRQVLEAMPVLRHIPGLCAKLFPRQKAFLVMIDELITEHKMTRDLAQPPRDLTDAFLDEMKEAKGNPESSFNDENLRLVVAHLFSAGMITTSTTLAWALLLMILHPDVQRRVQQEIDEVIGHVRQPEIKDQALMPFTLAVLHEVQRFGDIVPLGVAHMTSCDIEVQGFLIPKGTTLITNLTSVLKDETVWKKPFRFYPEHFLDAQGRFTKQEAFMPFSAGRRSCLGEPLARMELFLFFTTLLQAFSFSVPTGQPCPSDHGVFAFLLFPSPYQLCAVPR", "assay": "Incubation with inhibitors: DXM-O-demethylation in porcine hepatic microsomes", "type": "in vitro ADME, conventional pig", "conditions": "for Inhibition of DXM-O-demethylation by inhibitor: porcine hepatic microsomes; for Ratio of residual activity (substrate + inhibitor versus substrate only), CYP2D DXM: DXM 10 µM, inhibitors SFZ 0.5, α-NFV 0.1 (1 µM), QND 0.1, KET 0.3, DDC 20, 8-MPS 1 µM, mean (SD) of 3", "experimental": "(§1) The inhibitors used were α-NFV, 8-MPS, KET, SFZ, QND, and DDC for CYP1A/2 A, CYP2A, CYP3A, CYP2C, CYP2D, and CYP2E1, respectively. […] All incubations were performed in triplicate."}, "CYP2D [3]": {"test_system": "CYP2D", "set-up": "method as in Cyrus et al., 2011 and references herein", "conditions": "human; ref Cyrus et al., 2011 and references herein; cited from earlier work"}, "CYP3A [4]": {"test_system": "CYP3A", "conditions": "human; ref Cyrus et al., 2011 and references herein; cited from earlier work"}, "CYP3A [5]": {"test_system": "CYP3A", "assay": "Incubation with inhibitors: MDZ-hydroxylation in porcine hepatic microsomes", "type": "in vitro ADME, conventional pig", "conditions": "for Ratio of residual activity (substrate + inhibitor versus substrate only), CYP3A MDZ: MDZ 20 µM, inhibitors SFZ 0.5, α-NFV 0.1 (1 µM), QND 0.1, KET 0.3, DDC 20, 8-MPS 1 µM, mean (SD) of 3", "experimental": "as §1"}, "CYP2E": {"test_system": "CYP2E", "assay": "Incubation with inhibitors: CZ-hydroxylation in porcine hepatic microsomes", "type": "in vitro ADME, conventional pig", "conditions": "for Inhibition of CZ-hydroxylation by inhibitor: porcine hepatic microsomes; for Ratio of residual activity (substrate + inhibitor versus substrate only), CYP2E CZ: CZ 50 µM, inhibitors SFZ 0.5, α-NFV 0.1 (1 µM), QND 0.1, KET 0.3, DDC 20, 8-MPS 1 µM, mean (SD) of 3", "experimental": "as §1"}, "CYP2A [6]": {"test_system": "CYP2A", "assay": "Incubation with inhibitors: CM-hydroxylation in porcine hepatic microsomes", "type": "in vitro ADME, conventional pig", "conditions": "for Ratio of residual activity (substrate + inhibitor versus substrate only), CYP2A CM: CM 1 µM, inhibitors SFZ 0.5, α-NFV 0.1 (1 µM), QND 0.1, KET 0.3, DDC 20, 8-MPS 1 µM, mean (SD) of 3", "experimental": "as §1"}, "CYP2D6": {"test_system": "CYP2D6", "set-up": "method as in Cyrus et al, 2011", "conditions": "ref Cyrus et al, 2011; cited from earlier work"}, "CYP2C": {"test_system": "CYP2C", "conditions": "for Ratio of residual activity (substrate + inhibitor versus substrate only), CYP2C TB: TB 200 µM, inhibitors SFZ 0.5, α-NFV 0.1 (1 µM), QND 0.1, KET 0.3, DDC 20, 8-MPS 1 µM, mean (SD) of 3"}, "CYP1A": {"test_system": "CYP1A", "assay": "Incubation with inhibitors: PH-O-deethylation in porcine hepatic microsomes", "type": "in vitro ADME, conventional pig", "conditions": "PH 20 µM; inhibitors SFZ 0.5, α-NFV 0.1 (1 µM), QND 0.1, KET 0.3, DDC 20, 8-MPS 1 µM; mean (SD) of 3", "experimental": "as §1"}, "[7]": {"test_system": "hepatic CYP450 abundancies", "assay": "Pearson correlation between hepatic CYP450 abundancies and probe activities"}, "porcine CYP450": {"test_system": "porcine CYP450", "conditions": "outcome of general decision tree, Figure 4"}, "human CYP450": {"test_system": "human CYP450", "conditions": "Supplementary Table 4; ref Yuan et al., 2002 and references herein; cited from earlier work"}, "[8]": {"test_system": "porcine intestinal CYP450 enzymes", "assay": "in vitro", "conditions": "pig, pool of 16 pigs, n=3, mean (SD)"}, "[9]": {"test_system": "porcine intestinal CYP450 enzymes"}, "CYP2E1": {"test_system": "CYP2E1", "set-up": "method as in Baranovà et al., 2005; Pratt-hyatt et al., 2010", "conditions": "human; ref Baranovà et al., 2005; Pratt-hyatt et al., 2010; cited from earlier work"}},
  "note": "“Also recorded” adds a separate entry of the source. Marks after values point to notes of the source that are not given here.",
  "data": [
    {"smiles": "COc1c2occc2cc2ccc(=O)oc12", "note": "[8-methoxypsoralen]", "values": [
      {"measurement": "Ki", "setting": "CYP2A [1]", "result": "100 to 1500", "unit": "nM"}
    ]},
    {"smiles": "C=C[C@H]1C[N@@]2CC[C@H]1C[C@@H]2[C@@H](O)c1ccnc2ccc(OC)cc12", "note": "[Quinidine, quinidine]", "values": [
      {"measurement": "Inhibition of porcine CYP2D25", "setting": "porcine CYP2D25", "result": "not to inhibit"},
      {"measurement": "Inhibition of DXM-O-demethylation by inhibitor", "setting": "CYP2D [2]; listed as QND", "result": "did not inhibit; also recorded: no inhibition"},
      {"measurement": "Ki", "setting": "CYP2D [3]", "result": "30 to 400", "unit": "nM"}
    ]},
    {"smiles": "CC(=O)N1CCN(c2ccc(OCC3COC(Cn4ccnc4)(c4ccc(Cl)cc4Cl)O3)cc2)CC1", "note": "(centres unmarked) [Ketoconazole, ketoconazole]", "values": [
      {"measurement": "Inhibition of DXM-O-demethylation by inhibitor", "setting": "CYP2D [2]", "result": "could not inhibit"},
      {"measurement": "Ki", "setting": "CYP3A [4]", "result": "[…]"},
      {"measurement": "Effect of inhibitor on MDZ-hydroxylation", "setting": "CYP3A [5]; porcine hepatic microsomes", "result": "potent inhibitors"},
      {"measurement": "Inhibition of CZ-hydroxylation by inhibitor", "setting": "CYP2E", "result": 20, "unit": "%"}
    ]},
    {"smiles": "Nc1ccc(S(=O)(=O)Nc2ccnn2-c2ccccc2)cc1", "note": "[Sulphaphenazole, sulphaphenazole]", "values": [
      {"measurement": "Ratio of residual activity (substrate + inhibitor versus substrate only), CYP2A CM", "setting": "CYP2A [6]", "result": "1.05 (0.023)"},
      {"measurement": "Inhibition of CYP2D6 in men", "setting": "CYP2D6", "result": "do not significantly inhibit"},
      {"measurement": "Ratio of residual activity (substrate + inhibitor versus substrate only), CYP2D DXM", "setting": "CYP2D [2]", "result": "0.97 (0.080)"},
      {"measurement": "Ratio of residual activity (substrate + inhibitor versus substrate only), CYP2C TB", "setting": "CYP2C", "result": "0.98 (0.135)"},
      {"measurement": "Ratio of residual activity (substrate + inhibitor versus substrate only), CYP3A MDZ", "setting": "CYP3A [5]", "result": "1.20 (0.050)"},
      {"measurement": "Ratio of residual activity (substrate + inhibitor versus substrate only), CYP2E CZ", "setting": "CYP2E", "result": "1.03 (0.061)"},
      {"measurement": "Ratio of residual activity (substrate + inhibitor versus substrate only), CYP1A PH", "setting": "CYP1A", "result": "1.09 (0.030)"}
    ]},
    {"smiles": "Cc1ncc2n1-c1ccc(Cl)cc1C(c1ccccc1F)=NC2", "note": "[MDZ, Midazolam]", "values": [
      {"measurement": "Pearson's correlation coefficient, MDZ activity vs hepatic CYP3A22 abundance", "setting": "[7]; level 1 (MDZ 0.50 µM)", "result": 0.54},
      {"measurement": "Pearson's correlation coefficient, MDZ activity vs hepatic CYP3A22 abundance", "setting": "[7]; level 2 (MDZ 2.00 µM)", "result": 0.62},
      {"measurement": "Pearson's correlation coefficient, MDZ activity vs hepatic CYP3A22 abundance", "setting": "[7]; level 3 (MDZ 5.00 µM)", "result": "0.69*"},
      {"measurement": "Pearson's correlation coefficient, MDZ activity vs hepatic CYP3A22 abundance", "setting": "[7]; level 4 (MDZ 10.0 µM)", "result": "0.71*"},
      {"measurement": "Pearson's correlation coefficient, MDZ activity vs hepatic CYP1A2 abundance", "setting": "[7]; level 5 (MDZ 20.0 µM)", "result": 0.51},
      {"measurement": "Pearson's correlation coefficient, MDZ activity vs hepatic CYP3A22 abundance", "setting": "[7]; level 5 (MDZ 20.0 µM)", "result": "0.72*"},
      {"measurement": "Pearson's correlation coefficient, MDZ activity vs hepatic CYP3A46 abundance", "setting": "[7]; level 5 (MDZ 20.0 µM)", "result": 0.57},
      {"measurement": "Pearson's correlation coefficient, MDZ activity vs hepatic CYP1A2 abundance", "setting": "[7]; level 6 (MDZ 50.0 µM)", "result": 0.56},
      {"measurement": "Pearson's correlation coefficient, MDZ activity vs hepatic CYP3A22 abundance", "setting": "[7]; level 6 (MDZ 50.0 µM)", "result": "0.65*"},
      {"measurement": "Pearson's correlation coefficient, MDZ activity vs hepatic CYP3A46 abundance", "setting": "[7]; level 6 (MDZ 50.0 µM)", "result": "0.68*"},
      {"measurement": "Enzyme involvement: High affinity", "setting": "porcine CYP450", "result": "CYP3A"},
      {"measurement": "Km", "setting": "human CYP450", "result": "3 to 5", "unit": "µM"},
      {"measurement": "Km at 10 min", "setting": "[8]; Duodenum Km, duodenal microsomes", "result": 22.1, "unit": "µM"},
      {"measurement": "Km at 10 min", "setting": "[8]; Ileum Km, ileal microsomes", "result": 16.2, "unit": "µM"},
      {"measurement": "Km at 10 min", "setting": "[8]; Jejunum Km, jejunal microsomes", "result": 23.1, "unit": "µM"},
      {"measurement": "Duodenum a (Hill coefficient)", "setting": "[9]; duodenal microsomes, pool of 16 pigs, n=3, mean (SD)", "result": "1.26 (0.048)"},
      {"measurement": "Ileum a (Hill coefficient)", "setting": "[9]; ileal microsomes, pool of 16 pigs, n=3, mean (SD)", "result": "1.56 (0.45)"},
      {"measurement": "Vmax in intestinal microsomes as % of the hepatic Vmax", "setting": "[9]; intestinal versus hepatic microsomes", "result": 2, "unit": "%"},
      {"measurement": "Jejunum a (Hill coefficient)", "setting": "[9]; jejunal microsomes, pool of 16 pigs, n=3, mean (SD)", "result": "1.41 (0.043)"}
    ]},
    {"smiles": "CCN(CC)C(=S)S", "note": "[Diethyldithiocarbamate, diethyldithiocarbamate]", "values": [
      {"measurement": "Ki", "setting": "CYP2E1", "result": "12200 to 38000", "unit": "nM"},
      {"measurement": "Ratio of residual activity (substrate + inhibitor versus substrate only), CYP2A CM", "setting": "CYP2A [6]", "result": "0.74 (0.079)"},
      {"measurement": "Inhibition of CM-hydroxylation by inhibitor", "setting": "CYP2A [6]; porcine hepatic microsomes", "result": "decreased"},
      {"measurement": "Ratio of residual activity (substrate + inhibitor versus substrate only), CYP2D DXM", "setting": "CYP2D [2]", "result": "0.93 (0.084)"},
      {"measurement": "Ratio of residual activity (substrate + inhibitor versus substrate only), CYP2C TB", "setting": "CYP2C", "result": "0.87 (0.046)"},
      {"measurement": "Inhibition of TB-hydroxylation by inhibitor", "setting": "CYP2C; porcine hepatic microsomes", "result": "decreased"},
      {"measurement": "Ratio of residual activity (substrate + inhibitor versus substrate only), CYP3A MDZ", "setting": "CYP3A [5]", "result": "1.15 (0.074)"},
      {"measurement": "Ratio of residual activity (substrate + inhibitor versus substrate only), CYP2E CZ", "setting": "CYP2E", "result": "0.87 (0.003)-"},
      {"measurement": "Inhibition of CZ-hydroxylation by inhibitor", "setting": "CYP2E", "result": "decreased"},
      {"measurement": "Ratio of residual activity (substrate + inhibitor versus substrate only), CYP1A PH", "setting": "CYP1A", "result": "1.04 (0.010)"}
    ]}
  ]
}
